# Data: article PMC12736451, “Autophagy-Targeting Stapled Peptide Utilizes Macropinocytosis for Cell Entry to Potentiate Anti-Proliferative Autosis in Small-Cell Lung Cancer” (Pharmaceutics, 2025)
# Positions of bridges follow the written chain, without caps; N, C: chain ends. Non-standard residues stand in square brackets, D forms with d. Residues, ends and D or L forms follow the SMILES beside them. *: point of attachment. R8 = C=CCCCCCC[C@@](C)(N)C(=O)O; S5 = C=CCCC[C@](C)(N)C(=O)O; Cbz = O=C(OCc1ccccc1)*; CH2F = FC*
# Columns and labels:
# SHP-77 cells [1] = conditions: for rescue of Tat-SP4-induced cell death by cell death program inhibitor: 10 μM Tat-SP4, 24 h, trypan blue exclusion; for rescue of Tat-SP4-induced cell death by cell death program inhibitor / rescue of Tat-SP4-induced cell death by uptake pathway inhibitor: n = 3
# Procedure: (§1) Cell viability was measured by a trypan blue exclusion assay following the standard protocol provided by the manufacturer. SHP-77 cells and H146 cells were plated into 96-well plates at a density of 2 × 10^4 cells/well. Upon cell attachment, cells were treated with the graded concentrations of Tat-SP4 for 24 h. The IC50 value was calculated from the curve fitted to concentration–response data sets. All experiments were repeated in triplicate, and the mean was calculated. For the 5-day growth curve, cells were seeded into a 24-well plate at 2.5 × 10^4 cells/well for SHP-77 and H146 cells. Cells were treated with 10 μM Tat-SP4. Cells were allowed to grow for up to 5 days post-treatment, and the viable cell number was checked every 24 hours with the trypan blue exclusion assay. For cell death rescue assays, SHP-77 cells were first plated overnight in 96-well plates. Tat-SP4 was added to the cells, together with inhibitors for apoptosis, ferroptosis, necroptosis, or autosis. After 24 h treatment, the cell viability was measured by the trypan blue exclusion assay.
# Figure 3 Cell death induced by Tat-SP4 is rescued by an inhibitor of autosis but not by inhibitors for other cell death programs. (A) Flow cytometry analysis using Annexin V FITC-PI staining was conducted on SHP-77 cells after indicated hours of treatment with the Tat-SP4. […] (B) In the absence or presence of Z-VAD-FMK, SHP-77 cells treated with Tat-SP4 or cisplatin for 24 h. (C) SHP-77 cells were pretreated with ferroptosis inhibitor, ferrostatin-1, followed by 10 μM Tat-SP4 or 5 μM Erastin treatment for 24 h. […] (D) SHP-77 cells were treated with Tat-SP4 at 10 μM for 24 h, either in the presence or absence of necrostatin-1, respectively. […] (E) SHP-77 cells were pretreated with digoxin for 2 h, followed by the treatment of Tat-SP4 for 12 h. Cell viability was measured by trypan blue exclusion assay. Data are presented as mean ± SEM (n = 3). ** p < 0.01, **** p < 0.0001; unpaired t-test. TEXT PRINTED IN THE PICTURE: (A) Tat-SP4: Q1-UL 15.9% (10μM; 3h); Dead 30.5% (10μM; 3h); Live 48.8% (10μM; 3h); Apoptotic 4.8% (10μM; 3h); Q1-UL 51.4% (10μM; 6h); Dead 4.7% (10μM; 6h); Live 43.6% (10μM; 6h); Apoptotic 0.2% (10μM; 6h) DOUBTS OF THE COPYIST ABOUT THIS PICTURE: Tat-SP4 3h, Q1-UL 15.9%: very small print, 5 and 9 uncertain / Tat-SP4 3h, Dead 30.5%: very small print, 3 and 5 uncertain / Tat-SP4 3h, Live 48.8%: very small print, partly overlaid by the plot edge, both 8s uncertain / Tat-SP4 3h, Apoptotic 4.8%: very small print, 8 uncertain / Tat-SP4 6h, Q1-UL 51.4%: very small print, 5 uncertain / Tat-SP4 6h, Dead 4.7%: very small print, digits uncertain / Tat-SP4 6h, Live 43.6%: very small print, 3 and 6 uncertain / Tat-SP4 6h, Apoptotic 0.2%: very small print, digits uncertain
# Figure 5 The cellular uptake process of Tat-SP4 is energy- and macropinocytosis-dependent. (A) Representative flow cytometry plot of SHP-77 cells stained with Rhod-SP4 at 10 μM at 4 °C, room temperature, and 37 °C for an hour, respectively. The fluorescence intensity of Rhod-SP4 increases with increasing temperature. (B) Mean fluorescence intensity of Rhod-SP4 from (A). The bar graph represents a single experiment without replicates. (C) Representative flow cytometry plot of SHP-77 cells stained with Rhod-SP4 at 10 μM at 37 °C for an hour, in the presence or absence of various inhibitors. AM, Amiloride; MβCD, Methyl-beta cyclodextrin. Cells were pretreated with different inhibitors for 30 min, followed by staining with Rhod-SP4 at 10 μM. (D) Mean fluorescence intensity of Rhod-SP4 from (C). The bar graph represents a single experiment without replicates. (E–G) Assess the effect of different inhibitors of cell-penetrating peptides uptake pathways on Tat-SP4-induced cell death. […] Data are presented as mean ± SEM (n = 3). * p < 0.05; unpaired t-test.
# SHP-77 cells [2] = assay: Seahorse XF Mito Stress Test, oxygen consumption rate; assay type: cell-based; conditions: digoxin pretreatment followed by Tat-SP4
# Procedure: Oxygen consumption in intact cells was assessed using an XFe24 Extracellular Flux Analyzer (Agilent, Santa Clara, CA, USA) following the manufacturer’s standard protocol. Briefly, one day prior to the experiment, an XF24 cell culture microplate was coated with 100 µg/mL poly-lysine and incubated in a CO2 incubator at 37 °C. On the same day, 1 mL of XF calibrant was added to each well of the utility plate to hydrate the sensor, and the XF24 sensor cartridge was incubated overnight in a non-CO2 incubator at 37 °C. On the day of the experiment, the coated XF24 cell culture microplate was washed with PBS and then allowed to air dry. Then, SHP-77 cells were seeded at a density of 1.5 × 10^5 cells per well in the coated XF24 cell culture microplate with the XF assay medium containing 1 mM sodium pyruvate, 2 mM glutamine, and 10 mM glucose and incubated for 1 h in a non-CO2 incubator at 37 °C.
# Figure 4 Tat-SP4 impairs mitochondrial function and OXPHOS activity. […] Cells were stained with TMRM for 30 min and analyzed using flow cytometry. […] Fluorescence intensity is directly proportional to the amount of ROS in the cell. (C) OCR was measured using the Mito Stress Test with Agilent Seahorse Analyzer. […] (D) Quantification of basal maximum respiration changes respiration after Tat-SP4 treatment and in (A). **** p < 0.0001. […]
# SHP-77 cells [3] = assay: Intracellular Ca2+ imaging with genetically encoded indicators; assay type: cell-based; conditions: 10 µM digoxin pretreatment 1 h, then 10 µM Tat-SP4
# Procedure: Genetically encoded Ca^2+ indicators used in this study include mito-GCaMP5G, cyto-RCaMP1h, and G-CEPIA1er. SHP-77 cells were plated in 6-well plates to allow transfection. Cells were transfected with either mito-GCaMP5G, cyto-RCaMP1h, or G-CEPIA1er cDNA using Lipofectamine 2000 and incubated for 36 h. After transfection, cells were collected and evenly distributed into 24-well plates in HBSS buffer (Gibco) for imaging. Time-lapse fluorescence imaging was performed using an Olympus inverted epifluorescence microscope equipped with a ×20 objective and appropriate excitation/emission filter sets. Images were acquired every 3 s.
# To monitor subcellular Ca^2+ dynamics, SHP-77 cells expressing mito-GCaMP5G, cyto-RCaMP1h, or G-CEPIA1er were imaged to capture Ca^2+ fluctuations in the mitochondria, cytosol, and endoplasmic reticulum, respectively. Tat-SP4 or other agonists were applied 60 s after the start of imaging. Fluorescence signals were quantified as ΔF/F0, where ΔF represents the change in fluorescence at each time point and F0 denotes the baseline fluorescence.
# (A,B) SHP-77 cells were transfected with cyto-RCaMP1h (A) or mito-GCaAMP5G (B) for 36 h. […] SHP-77 cells were pretreated with 10µM digoxin for 1 h, followed by the stimulation of Tat-SP4.
# H146 cells = assay: Trypan blue exclusion cell viability assay, 24 h; assay type: cell-based; conditions: 24 h treatment, triplicate, mean, read-out: cytotoxicity IC50
# Procedure: as §1
# (§2) (A) Trypan blue exclusion assay to assess the cytotoxicity IC50 of Tat-SP4 in SHP-77 and H146 cell lines. Cells were treated with Tat-SP4 at a series of concentrations for 24 h. The number of viable cells was determined manually using a hemocytometer and the trypan blue dye exclusion method.
# SHP-77 cells [4] = assay: Trypan blue exclusion cell viability assay, 24 h; assay type: cell-based; conditions: 24 h treatment, triplicate, mean, read-out: cytotoxicity IC50
# Procedure: as §1, §2
# in vitro = conditions: human, Beas-2B cells (normal bronchial epithelial)
# Procedure: as §1, §2
# SHP-77 xenograft = SHP-77 xenograft model; assay type: in vivo; conditions: male nude mice, 40 mg/kg/day i.p., heart, liver, spleen, lung, kidney, stomach
# Procedure: Animal experiments were carried out according to the guidelines of the Centralized Animal Facilities of the Hong Kong Polytechnic University. Male nude mice, 5–6 weeks in age, were purchased from the Centralized Animal Facilities of the Hong Kong Polytechnic University. Exponentially growing SHP-77 cells were harvested and resuspended in PBS with a concentration of 1 ×10^8 cells per ml. Mixed cell suspensions with Matrigel (Corning) in a 1:1 volume ratio with 5 × 10^5 SHP-77 cells were injected subcutaneously into the right-lower back of the mice. The tumor volume was calculated by the equation of Length × Width × Width/2. Mice were divided randomly into two groups (8 animals/group) when the tumor volume reached 50–60 mm^3. Tat-SP4 was administered intraperitoneally at 40 mg/kg every day, while PBS was administered to mice in the control group. The tumor volume was measured every other day. Treatments were continued until the tumor volume in the mice in the control group reached the maximum volume allowable according to the Centralized Animal Facilities of the Hong Kong Polytechnic University. At the end of the experiment, mice were sacrificed, and both tumors and vital organs were harvested for analysis. Tumor weights were measured after resection. […]
# Figure 7 The anti-proliferative efficacy of Tat-SP4 in the SHP-77 xenograft model. […] The tumor volume was recorded every other day. […]
compound,measurement,setting,value
CN1C(=O)C(Cc2c[nH]c3ccccc23)NC1=S (stereo not shown) [Necrostatin-1],rescue of Tat-SP4-induced cell death by cell death program inhibitor,SHP-77 cells [1],did not rescue
COC(=O)C[C@H](NC(=O)[C@H](C)NC(=O)[C@@H](NC(=O)OCc1ccccc1)C(C)C)C(=O)CF [Z-VAD-FMK] (Cbz-Val-Ala-Asp(OMe)-CH2F),rescue of Tat-SP4-induced cell death by cell death program inhibitor,SHP-77 cells [1],had no effect
same,rescue of cisplatin-induced apoptotic cell death,SHP-77 cells [1]; cisplatin 24 h,rescued
"N=C(N)NC(=O)c1nc(Cl)c(N)nc1N [amiloride, Amiloride]",rescue of Tat-SP4-induced cell death by uptake pathway inhibitor,SHP-77 cells [1],readily rescued cell death
Methyl-beta-cyclodextrin [MβCD],rescue of Tat-SP4-induced cell death by uptake pathway inhibitor,SHP-77 cells [1],showed no such effect
"C[C@H]1O[C@@H](O[C@H]2[C@@H](O)C[C@H](O[C@H]3[C@@H](O)C[C@H](O[C@H]4CC[C@@]5(C)[C@H](CC[C@@H]6[C@@H]5C[C@@H](O)[C@]5(C)[C@@H](C7=CC(=O)OC7)CC[C@]65O)C4)O[C@@H]3C)O[C@@H]2C)C[C@H](O)[C@@H]1O [digoxin, Digoxin]",basal and maximum OCR levels after Tat-SP4 with digoxin pretreatment,SHP-77 cells [2],comparable to those for untreated controls
same,effect on Ca2+ influx triggered by Tat-SP4 (cyto-RCaMP and mito-GCaMP5G),SHP-77 cells [3],completely abolished
CC(=O)N[C@@H](Cc1ccc(O)cc1)C(=O)NCC(=O)N[C@@H](CCCNC(=N)N)C(=O)N[C@@H](CCCCN)C(=O)N[C@@H](CCCCN)C(=O)N[C@@H](CCCNC(=N)N)C(=O)N[C@@H](CCCNC(=N)N)C(=O)N[C@@H](CCC(N)=O)C(=O)N[C@@H](CCCNC(=N)N)C(=O)N[C@@H](CCCNC(=N)N)C(=O)N[C@@H](CCCNC(=N)N)C(=O)N[C@@H](CCCNC(=N)N)C(=O)N[C@@H](CC(C)C)C(=O)N[C@@H](CO)C(=O)N[C@@H](CCC(=O)O)C(=O)N[C@@H](CC(C)C)C(=O)N[C@]1(C)CCCCCCC=CCCC[C@@](C)(C(=O)N[C@@H](C)C(N)=O)NC(=O)[C@H](CCCNC(=N)N)NC(=O)[C@H](CCC(N)=O)NC(=O)[C@H](CCCCN)NC(=O)[C@H](CCC(=O)O)NC(=O)[C@H](CCCNC(=N)N)NC(=O)[C@H](CC(=O)O)NC1=O [Tat-SP4] (Ac-YGRKKRRQRRRRLSEL[R8]DREKQR[S5]A-NH2; staple 17-24),IC50,H146 cells,17.6 µM
same,IC50,SHP-77 cells [4],7.66 µM
same,IC50 at 24 h,in vitro,94.9 µM
same,body weight and gross morphology of major organs,SHP-77 xenograft,no abnormal changes
CCOC(=O)c1ccc(NC2CCCCC2)c(N)c1 [Ferrostatin-1],rescue of Tat-SP4-induced cell death by cell death program inhibitor,SHP-77 cells [1],did not rescue
Heparin,rescue of Tat-SP4-induced cell death by uptake pathway inhibitor,SHP-77 cells [1],readily rescued cell death
